Assay results reported in patent US8658677B2, “Pyridyl-2-methylamino compounds, compositions and uses thereof” (Aria Neurosciences Inc., priority 2011, dated 2014).
Entries after “also recorded” stand apart in the source; their conditions may differ.

Legend:
[1] = test system: SK-N-SH human neuroblastoma cells; experiment: Toxicity by MTT cell viability and LDH release assays; type: cell-based
Method: The effect of 0.01-100 μmol/L concentrations of investigational compounds was tested on the viability of the N2a murine neuroblastoma cell line (American Type Culture Collection, Manassas, Va.). N2a cells were grown in Eagle's minimal essential medium with the addition of 10% fetal bovine serum, streptomycin and gentomycin (Sigma, St. Louis, Mo.), harvested with 2% trypsin and plated at 10,000 cells/100 μL per well in flatbottom, 96-well microtiter plates. The cells were allowed to attach to the plate overnight in an incubator (37° C., 5% CO2) and in the following morning stocks of investigational compounds (50 mmol/L stock diluted in DMSO) were added to cells to achieve the final concentration 0.01-100 μmol/L. Adequate amounts of DMSO (Dimethyl sulfoxide, Sigma, St. Louis, Mo.) were added to control cells. Cells were grown in the presence of investigational compounds for 48 h and then their viability was assessed using a metabolic assay, which is based on cleavage of the yellow tetrazolium salt (MTT) to purple formazan crystals by viable cells. The MTT assay (Roche Molecular Biochemicals, Indianapolis, Ind.) was performed according to the manufacturer's instructions. The results from cell culture neurotoxicity studies were evaluated by one-way analysis of variance, followed by a Dunnett's test as a post hoc analysis.
As shown in FIG. 2 (MTT assay), the compounds were tested for toxicity in SK-N-SH human neuroblastoma cells using MTT cell viability and LDH release (membrane integrity) assays.

Aβ40 = Aβ40 secretion by primary hippocampal neurons derived from Tg2576 AD Tg mice; type: cell-based; conditions: 10 μM, primary neuronal cultures from Tg2576 mice
Method: In addition to studying the effect of ARN4261 and ARN2966 on Aβ oligomerization and fibrillization, we have explored their properties in respect to the modulation of Aβ production using CHO clones stably transfected with WT human APP751 and double Swedish APP751 mutant (KM670/671NL). The results in FIGS. 3(A) and 3(B) show inhibitory effect of ARN4261 and ARN2966 on secretion of Aβ40 and Aβ42 by 751APPSW CHO cells exposed to ARN compounds for 48 hr. Values are expressed as % of Aβ40 and Aβ42 levels in conditioned media (CM) of untreated cells. FIG. 3(C) Concentrations of Aβ40 and Aβ42 in 751APPSWCHO cell CM under increasing concentrations of ARN2966. 751APPSWCHO cells secrete Aβ40 and Aβ42 in proportions 9:1, akin to the proportions of Aβ peptides produced by neurons. […] Aβ40 and Aβ42 levels were determined using sandwich ELISA where C-terminal specific anti Aβ40 and Aβ42 mAbs were used as capture Abs and biotinylated 4G8 as the detection Ab. […] We also confirmed that ARN2966 inhibited secretion of Aβ by primary neuronal cultures derived from Tg2576 AD Tg mice.

APPSW/PS1dE9 mice = experiment: In vivo toxicity during four-month treatment; conditions: 50 mg/kg/day ip, age six to ten months
Method: Female APPSW/PS1dE9 mice received ARN2966 (n=10) or Vehicle (n=15) from the age of six to ten months. ARN2966 (50 mg/kg/day) was given once a day by intraperitoneal injection. […] After conclusion of the experiments, samples of organs from ARN2966 and Vehicle treated animals were subjected to histopathological evaluation conducted by a veterinary pathologist. […] Signs of mild chronic peritonitis related to repeated daily intraperitoneal compound injection, however, were reported in both groups.

Aβ plaques = experiment: Aβ plaque load and brain Aβ level after chronic treatment; type: in vivo, mice
Method: Female APPSW/PS1dE9 AD double transgenic (Tg) mice received daily intraperitoneal injections of ARN2966 (50 mg/kg) starting from the age of six months until the age of 10 months.
Following the course of ARN2966 treatment, animals were sacrificed, and the load of Thioflavin-S (Th-S) stained Aβ plaques (% of histological section area covered by plaques) was quantified in the brain cortex on serial coronal sections through the rostrocaudal axis of the right hemisphere as described by us [Sadowski 2004]. The left hemisphere was homogenized (1:10 weight/volume), and aliquots of the homogenate were used to measure the level of Aβ oligomers (Aggregated β-Amyloid ELISA Kit, [Invitrogen]) or subjected to formic acid (FA) extraction to determine total Aβ40 and Aβ42 brain levels via sandwich ELISAs discriminating C-terminal configuration of both peptides as described by us [Sadowski 2006]. […] Levels of FA extracted Aβ40 and Aβ42 were reduced by 82% (p<0.001) and 56% (p<0.001; FIG. 6C).
(§1) FIGS. 6.(A, B) ARN2966 treatment reduces load of Aβ plaques (n=10 ARN2966, n=15 Vehicle). (B) Representative photomicrograph of Th-S stained brain sections from vehicle and ARN2966 treated 10 month old, female APPSW/PS1dE9reveal a difference in the load of Aβ plaques. […] (D) Reduced Aβ40 and Aβ42 levels in FA extracted brain homogenate, which represent the total brain content of Aβ peptides in ARN2966 treated animals (ELISA). (E) Reduced soluble Aβ40 level in DEA extracted brain homogenate, of ARN2966 and Compound E treated mice (ELISA). […] Aβ concentrations in (C) (D) and (E) are given per gram of wet brain. All values are given as mean±SEM. Statistical analysis was done using two-tailed unpaired t-test, following confirmation of normal distribution of data using Shapiro-Wilk test.

APP [2] = experiment: Acute treatment experiment: brain soluble Aβ40, APP, C99 and C83; type: in vivo, mice; conditions: five days ip, ARN2966 50 mg/kg/day, Compound E 3 mg/kg/day
Method: Furthermore, we conducted an acute treatment experiment where six months old female APPSW/PS1dE9 mice (n=3/group) were treated for five days with ARN2966 (50 mg/kg/day), Compound E (3 mg/kg/day) or Vehicle injected intraperitoneally. Mice were killed three hours after the last injections. The level of soluble Aβ40 was measured in the brain aliquots following diethylamine (DEA) extraction. It was lower in ARN2966 and Compound E treated groups by 39% (p<0.05) and 60% (p<0.05) comparing to vehicle treated mice, respectively (p<0.05; FIG. 6E).
as §1

APP [3] = experiment: APP, C99, C83 and sAPP levels in 751APPSW CHO cells (immunoblot, immunostaining); type: cell-based, human
[4] = Analysis of chemical structure stability; type: physicochemical
From the text: This is because of the instability of —C═N— bond. Therefore we have synthesized a reduced version of ARN4261dubbed ARN2966 (2-[(pyridine-2-ylmethyl)-amino]-phenol, MW 200.2 Da, Log P 1.96).

[5] = 50 mg/kg/day ip, age six to ten months, ELISA

Row | SMILES | toxicity ([1]; test not specified) | lowering of Aβ40 concentration in the conditioned media (Aβ40) [%] | body weight / weight gain (APPSW/PS1dE9 mice) | histopathological evaluation of organs (APPSW/PS1dE9 mice) | physical appearance, unprovoked behavior, response to external stimuli (APPSW/PS1dE9 mice) | reduction in the Aβ load (unbiased quantification, Thioflavin-S) (Aβ plaques; 50 mg/kg daily ip, age six to 10 months) [%] | reduction of load of Th-S positive plaques in the brain cortex (Aβ plaques; 50 mg/kg/day ip, age six to ten months) [%] | reduction of FA extracted Aβ40 brain level (Aβ plaques; [5]) [%] | reduction of FA extracted Aβ42 brain level (Aβ plaques; [5]) [%] | reduction of level of Aβ oligomers in brain homogenate (Aβ plaques; [5]) [%] | APP, C99 and C83 signal in brain homogenate (western immunoblotting) (APP [2]) | lowering of soluble Aβ40 (DEA extraction) in brain vs vehicle (APP [2]; killed three hours after last injection) [%] | anti-APP immunostaining with 22C11 mAb (APP [3]; 751APPSW CHO cells) | concentrations at which reduction in APP FL level is seen (APP [3]; 751APPSW CHO clone) [µM] | level of APP FL, C99 and C83 in cell lysates (APP [3]; 751APPSW CHO clone) | sAPP (sAPPα and total sAPP stub) in conditioned media (APP [3]; 751APPSW CHO clone) | level of β-actin (APP [3]; 751APPSW CHO clone, increasing concentration) | toxicity ([1]; 0.1-100 μM) | chemical structure stability [4] | stability in acidic pH ([4]; acidic pH)
1 | Oc1ccccc1NCc1ccccn1 [ARN2966, 2-[(pyridine-2-ylmethyl)-amino]-phenol] | not toxic | 61.4 | proper rate of age related weight gain | No signs of ARN2966 toxicity | no noticeable changes in physical appearance, unprovoked behavior or response to external stimuli | 25.8 | 21.9 | 82 | 56 | 20.5 | evident reduction of APP, C99, and C83 signal | 39 | reduced without evidence of staining redistribution; also recorded: Reduced anti-APP staining | ≥ 10 | reduce the level of full length APP (APP FL) and both C99 and C83 APP stubs; also recorded: reduced levels of full length APP (APP FL) and C99 and C83 APP stubs | reduced levels | no apparent change | – | – | –
2 | Oc1ccccc1N=Cc1ccccn1 [ARN4261, 2-(Pyridin-2-ylmethyleneamino)-phenol] | – | – | – | – | – | – | – | – | – | – | – | – | – | – | reduce the level of full length APP (APP FL) and both C99 and C83 APP stubs; also recorded: reduced levels of full length APP (APP FL) and C99 and C83 APP stubs | – | – | no toxicity | prone to self-decomposing | easily degradable in acidic pH
